Test system: 885724-159-R-J1-PDC complex spheroid viability
Assay: Anticancer human tumor 885724-159-R-J1-PDC patient-derived pancreatic adenocarcinoma cell line growth inhibition [GQUAD]
Settings: for IC50: curve of first compound; for viability, T/C: stronger effect = lower value; active = viability on the fitted dose curve at most 10% of control; inactive = the rest
In short: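 Tumor cells were grown as complex spheroids with HUVEC endothelial cells and mesenchymal stem cells as stroma. G-quadruplex stabilizers were combined with targeted agents over half-log dilutions from near the clinical Cmax, or from 10 microM.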

[1] = second compound 0.0316 µM, first compound 0.0316 µM
[2] = second compound 0.0316 µM, first compound 0.1 µM
[3] = second compound 0.0316 µM, first compound 0.316 µM
[4] = second compound 0.0316 µM, first compound 1 µM
[5] = second compound 0.0316 µM, first compound 3.16 µM
[6] = second compound 0.0316 µM, first compound 10 µM
[7] = second compound 0.1 µM, first compound 0.0316 µM
[8] = second compound 0.1 µM, first compound 0.1 µM
[9] = second compound 0.1 µM, first compound 0.316 µM
[10] = second compound 0.1 µM, first compound 1 µM
[11] = second compound 0.1 µM, first compound 3.16 µM
[12] = second compound 0.1 µM, first compound 10 µM
[13] = second compound 0.316 µM, first compound 0.0316 µM
[14] = second compound 0.316 µM, first compound 0.1 µM
[15] = second compound 0.316 µM, first compound 0.316 µM
[16] = second compound 0.316 µM, first compound 1 µM
[17] = second compound 0.316 µM, first compound 3.16 µM
[18] = second compound 0.316 µM, first compound 10 µM
[19] = second compound 1 µM, first compound 0.0316 µM
[20] = second compound 1 µM, first compound 0.1 µM
[21] = second compound 1 µM, first compound 0.316 µM
[22] = second compound 1 µM, first compound 1 µM
[23] = second compound 1 µM, first compound 3.16 µM
[24] = second compound 1 µM, first compound 10 µM
[25] = second compound 3.16 µM, first compound 0.0316 µM
[26] = second compound 3.16 µM, first compound 0.1 µM
[27] = second compound 3.16 µM, first compound 0.316 µM
[28] = second compound 3.16 µM, first compound 1 µM
[29] = second compound 3.16 µM, first compound 3.16 µM
[30] = second compound 3.16 µM, first compound 10 µM
[31] = second compound 10 µM, first compound 0.0316 µM
[32] = second compound 10 µM, first compound 0.1 µM
[33] = second compound 10 µM, first compound 0.316 µM
[34] = second compound 10 µM, first compound 1 µM
[35] = second compound 10 µM, first compound 3.16 µM
[36] = second compound 10 µM, first compound 10 µM
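Note: spheroids exposed to agents for seven days before readout.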
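Throughout, for viability, T/C: percent of vehicle control viability where 100% = DMSO wells.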

COc1ncnc(C2CC2)c1-c1ncc2cnn(Cc3ccc(-c4nc(C(F)(F)F)cn4C(C)C)cc3)c2n1 + Cc1cnc(CNC(=O)c2c(=O)c3ccc(N4CCCN(C)CC4)nc3n3c2sc2ccccc23)cn1
> 10 µM: IC50 (second compound 0.0316 µM) | IC50 (second compound 0.1 µM) | IC50 (second compound 0.316 µM) | IC50 (second compound 1 µM) | IC50 (second compound 3.16 µM) | IC50 (second compound 10 µM)
inactive: viability, T/C [1] 113% | viability, T/C [2] 106% | viability, T/C [3] 103% | viability, T/C [4] 114% | viability, T/C [5] 115% | viability, T/C [6] 118% | viability, T/C [7] 117% | viability, T/C [8] 114% | viability, T/C [9] 111% | viability, T/C [10] 103% | viability, T/C [11] 112% | viability, T/C [12] 109% | viability, T/C [13] 97.5% | viability, T/C [14] 97.4% | viability, T/C [15] 92.4% | viability, T/C [16] 98.5% | viability, T/C [17] 110% | viability, T/C [18] 106% | viability, T/C [19] 95.1% | viability, T/C [20] 90.8% | viability, T/C [21] 93.6% | viability, T/C [22] 87.5% | viability, T/C [23] 99.3% | viability, T/C [24] 87.3% | viability, T/C [25] 76.4% | viability, T/C [26] 73.6% | viability, T/C [27] 73.2% | viability, T/C [28] 72.7% | viability, T/C [29] 82.5% | viability, T/C [30] 79.5% | viability, T/C [31] 69.5% | viability, T/C [32] 69.5% | viability, T/C [33] 61.8% | viability, T/C [34] 66.5% | viability, T/C [35] 76.7% | viability, T/C [36] 75.8%

CC(C)(O)C1CCC(Nc2ccc3ncc(-c4cccc(C(F)(F)F)c4)n3n2)CC1 (centres undefined) + Cc1[nH]c2ccc(F)cc2c1-c1nc2c3cccnc3c3ncccc3c2[nH]1
< 0.0316 µM: IC50 (second compound 3.16 µM)
2.76 µM: IC50 (second compound 0.1 µM)
1.52 µM: IC50 (second compound 0.316 µM)
active: viability, T/C [26] 8.78% | viability, T/C [27] 9.83% | viability, T/C [28] 9.8% | viability, T/C [29] 7.07% | viability, T/C [30] 7.05%
inactive: viability, T/C [1] 96.3% | viability, T/C [2] 93.1% | viability, T/C [3] 83.1% | viability, T/C [4] 84.6% | viability, T/C [5] 37.3% | viability, T/C [6] 44.7% | viability, T/C [7] 97.1% | viability, T/C [8] 91.6% | viability, T/C [9] 77.4% | viability, T/C [10] 72.1% | viability, T/C [11] 41.4% | viability, T/C [12] 41.2% | viability, T/C [13] 90.5% | viability, T/C [14] 78.3% | viability, T/C [15] 82.8% | viability, T/C [16] 55.5% | viability, T/C [17] 40.7% | viability, T/C [18] 38.3% | viability, T/C [19] 77% | viability, T/C [20] 58.2% | viability, T/C [21] 57.2% | viability, T/C [22] 47.6% | viability, T/C [23] 33.8% | viability, T/C [24] 29.6% | viability, T/C [25] 19.3% | viability, T/C [31] 67.9% | viability, T/C [32] 59% | viability, T/C [33] 57.7% | viability, T/C [34] 50.5% | viability, T/C [35] 28.2% | viability, T/C [36] 35.4%
0.538 µM: IC50 (second compound 1 µM)
2.5 µM: IC50 (second compound 0.0316 µM)
1.03 µM: IC50 (second compound 10 µM)
